Results on two molecules are retold here after patent publication US20240043933A1, “METHODS FOR DETECTING AND PREDICTING BREAST CANCER” (UCL Business Ltd, priority 2020, published 2024).

Entries after “also recorded” stand apart in the source; their conditions may differ.

The subject of assay [1] is WID-Breast5 (mean PMR of MTA1, HOXD12, LHX8, NEUROD1, CBLN4) in breast tissue. The assay is described as follows: WID-Breast5 (MethyLight PMR) in breast biopsies before and after treatment (Set 3). Format: in vivo, human. An excerpt:
(§1) Study subjects for both trials were healthy premenopausal women aged 18 and above with regular menstrual cycles lasting 25-35 days and with no contraindications to mifepristone. The main exclusion criteria were: use of any hormonal or intrauterine contraception and pregnancy or breastfeeding two months prior to the study; a history of breast cancer or other malignancies and adnexal abnormality upon transvaginal ultrasound examination. All women were instructed to use barrier contraceptive methods throughout the duration of the study. After signing an informed consent, study subjects in both trials were randomised 1:1 or 1:2 into the vitamin arm (Triobe®—used as a comparator in these studies) or mifepristone arm in Trial 1 and Trial 2, respectively. One group (i.e. 16 BRCA carriers and 28 controls) was treated with 50 mg mifepristone (one quarter of 200 mg Mifegyne®, Exelgyn, Paris, France) every other day for two months in Trial 1 (n=28) and three months in Trial 2 (n=16) starting on the first day of the menstrual cycle. As mifepristone is only available in 200 mg tablets in Sweden, a study nurse divided the tablets into 4 parts (each 50 mg) and instructed the study subjects to take one part every other day. The other group (i.e. 8 BRCA carriers and 29 controls) received Triobe® tablets which are visually identical to mifepristone and were also divided into 4 parts [one quarter of TrioBe® contains 0.125 mg cyanocobalamin (Vitamin B12), 0.2 mg folic acid (Vitamin B9), and 0.75 mg Pyridoxinhydrochlorid (Vitamin B6)]. Tablets were dispensed for two weeks at a time. Core needle aspiration biopsies were collected during the luteal phase before treatment and at the end of treatment during the luteal phase (vitamin treatment) or corresponding time of the cycle (mifepristone treatment). The biopsies were collected under ultrasound guidance from the upper outer quadrant of one breast using a 14 Gauge needle with an outer diameter of 2.2 mm. The end-of-treatment breast biopsy was taken from the same area. From Trial 1, 12 women from each of the vitamin and mifepristone groups were included in this study; of these, 11 and 9 women, respectively, had provided sufficient DNA from the pre- and post-treatment biopsies for subsequent processing and analysis. […]
Sodium bisulfite conversion of genomic DNA and the MethyLight assay were performed as previously described (A. Jones et al., Role of DNA methylation and epigenetic silencing of HAND2 in endometrial cancer development. PLoS Med 10, e1001551 (2013)). […] The percentage of fully methylated molecules at a specific locus has been calculated by dividing the GENE:COL2A1 ratio of a sample by the GENE:COL2A1 ratio of SssI-treated human white blood cell DNA and multiplied by 100. […]

Assay [2] has as its system WID-Breast29 (mean methylation level of 37 CpGs) in breast tissue. The assay is described as follows: WID-Breast29 in breast biopsies before and after treatment (clinical trials, Set 3). Format: in vivo, human.
Excerpt: Set 3: to assess the performance of the WID-Breast29 test monitoring preventive measures in real time. The samples were obtained from two clinical trials (FIG. 4) as follows.
Trial 1 was “Mifepristone treatment prior to insertion of a levonorgestrel releasing intrauterine system for improved bleeding control—a randomised controlled trial” (1) (EudraCT number: 2009-009014-40; Regional ethical review board at Karolinska Institutet permit 2009/144-31/4). The primary objective was to assess the effect of mifepristone pre-treatment on the initial bleeding pattern after insertion of a levonorgestrel releasing intrauterine system. An included secondary objective was to study the effect of mifepristone on breast tissue.
Trial 2 was “The Effect of a Progesterone Receptor Modulator on Breast Tissue in Women with BRCA-1 and -2 Mutations” (ClinicalTrials.gov Identifier: NCT01898312; regional ethical review board at Karolinska Institutet permit 2012/729 31/1). The core objective of this ongoing study is to assess the safety and effect of treatment with mifepristone on epithelial cell proliferation in human breast tissue in women with BRCA-1 or -2 mutations prior to protective mastectomy.
as §1, with “time.” for “time. Core needle aspiration biopsies were collected during the luteal phase before treatment and at the end of treatment during the luteal phase (vitamin treatment) or corresponding time of the cycle (mifepristone treatment). The biopsies were collected under ultrasound guidance from the upper outer quadrant of one breast using a 14 Gauge needle with an outer diameter of 2.2 mm. The end-of-treatment breast biopsy was taken from the same area. From Trial 1, 12 women from each of the vitamin and mifepristone groups were included in this study; of these, 11 and 9 women, respectively, had provided sufficient DNA from the pre- and post-treatment biopsies for subsequent processing and analysis.”

Assay [3] deals with BRCA-mediated breast cancer. To be noted: rodents; cited from earlier work.
The next assay concerns breast tissue. As to conditions: healthy women; cited from earlier work.
Another assay concerns mammary cancer. To be noted: mice; cited from earlier work.
In assay [4] the test system is breast epithelial proliferation. As to conditions: three premenopausal volunteers; cited from earlier work.
The subject of assay [5] is contralateral breast cancer. As to conditions: postmenopausal breast cancer patients; cited from earlier work.
Where [6] appears, read: biopsies before and after 2-3 month treatment.

Turning to `CC#C[C@]1(O)CC[C@H]2[C@@H]3CCC4=CC(=O)CCC4=C3[C@@H](c3ccc(N(C)C)cc3)C[C@@]21C` [mifepristone], the “BRCA mutant volunteers not showing a reduction of the WID-Breast5 after treatment” value in assay [1] (BRCA mutant volunteers (6/10)) is 60%. In assay [1] (all women of the group (12 vitamins, 16 mifepristone), biopsies before and after 2-3 month treatment), the “women exhibiting a lower WID-Breast5 after treatment” value turned out to be 75%. Also, in assay [1] (setting [6]), the “change in WID-Breast5 after treatment (paired-sample t-test)” value is “highly significant reduction; also recorded: significantly reduced”. Besides, the “control volunteers showing a reduction of the WID-Breast5 after treatment” value in assay [1] (healthy control volunteers (n=6)) was found to be 100%. The “BRCA mutant volunteers not showing a reduction of the WID-Breast29 after treatment” value in assay [2] (BRCA mutant volunteers (4/11)) came out at 36%. In addition, the “women exhibiting a lower WID-Breast29 after treatment” value in assay [2] (all women of the group (15 vitamins, 20 mifepristone), biopsies before and after 2-3 month treatment) stood at 80%. Also, the “change in WID-Breast29 after treatment (paired-sample t-test)” value in assay [2] (setting [6]) is “highly significant reduction; also recorded: significantly reduced”. Further, the “control volunteers showing a reduction of the WID-Breast29 after treatment” value in assay [2] (healthy control volunteers (n=9)) is recorded as 100%. Further, in assay [3], the “prevention of BRCA-mediated breast cancer formation” value is reported as “can be prevented”. For the same molecule, in the assay with breast tissue, the “effect on proliferation in breast tissue” value was “antiproliferative effect”. Moreover, the “effect on mammary cancer development” value in the assay with mammary cancer is “reduce mammary cancer development”.

Regarding “Denosumab: fully humanised monoclonal antibody that binds RANKL”, in assay [4], the “effect on breast epithelial proliferation” value is given as “reduce breast epithelial proliferation”. Also, in assay [5], the “impact on the incidence of contralateral breast cancer” value is given as “does not appear to impact”.
